{"source": "patent US10093706B2", "about": "“Dominant positive hnRNP-E1 polypeptide compositions and methods” (Indiana University Research and Technology Corporation, priority 2017, dated 2018)", "key": {"[1]": {"molecular_target": "[^35S]25-nt hnRNP-E1 mRNA cis-element", "experiment": "Dissociation constant (KD) of GST-hnRNP-E1 or its mutant proteins for the 25-nt hnRNP-E1 mRNA cis-element", "type": "binding, human", "conditions": "L-Homocysteine 0 μM", "description": "(§1) Methods for testing the ability of an engineered hnRNP-E1 variant polypeptide to bind to an RNA comprising the sequence of SEQ ID NO:6 are known in the art. Such methods include, but are not limited to, RNA electrophoretic mobility shift assays, as exemplified herein, RNA pull-down assays, and oligonucleotide-targeted RNase H protection assays. Such assays are conducted in the presence or absence of homocysteine to determine the RNA-binding dependence of any particular hnRNP-E1 polypeptide tested on the presence of homocysteine. […] Additional methods are outline in Tang et al. (“Incrimination of heterogeneous nuclear ribonucleoprotein E1 (hnRNP-E1) as a candidate sensor of physiological folate deficiency.” J Biol Chem. 2011; 286(45):39100-39115), which is incorporated herein in its entirety.\n(§2) Specific binding was determined by subtracting values of non-specific binding with GST from those of total binding with GST-hnRNP-E1; (however, in Table 1 and FIG. 6G, non-specific binding using bovine serum albumin (BSA) was subtracted from total binding to GST-hnRNP-E1 to determine specific binding). The KD was calculated from a Scatchard plot using GraphPad Prism 6 from GraphPad Software (San Diego, Calif.), as previously described in the art."}, "[2]": {"molecular_target": "[^35S]18-nt folate receptor-α mRNA cis-element", "experiment": "Dissociation constant (KD) of GST-hnRNP-E1 or its mutant proteins for the 18-nt folate receptor-α mRNA cis-element", "type": "binding, human", "conditions": "L-Homocysteine 0 μM; listed as (HA)-hnRNP-E1(C293 S)-mutant", "description": "as §1, §2"}, "[3]": {"test_system": "25-nt hnRNP-E1 mRNA cis-element", "experiment": "Gel-shift assay of hnRNP-E1 proteins with 25-nt hnRNP-E1 mRNA cis-element", "type": "binding, human", "conditions": "absence of L-homocysteine", "description": "(§3) Parenthetically, there was no significant difference in RNA binding to GST-hnRNP-E1 by use of either 32P-RNA probes or 35S-labeled RNA probes used. Other studies assessed the effect of iron(II) or iron(III) on homocysteine-induced RNA-protein interactions.\n(§4) Recombinant GST-plasmid DNA, pGST-hnRNP-E1, pGST-hnRNP-E2, and related engineered variant plasmids were transformed into BL21 Escherichia coli from Novagen (Madison, Wis.). After induction by 1 mM isopropyl-1-thio-ß-D-galactopyranoside, the GST-hnRNP-E1 and engineered variant fusion proteins were individually purified using the B-PER GST Fusion Protein Purification Kit (Pierce, Rockford, Ill.). The eluted GST fusion proteins were dialyzed against 500 volumes of buffer to remove excess reducing reagents (such as dithiothreitol (DTT)) and assayed by SDS-PAGE and Western blots using anti-peptide hnRNP-E1 antiserum. Gel shift assays with target RNA were carried out as described."}, "[4]": {"test_system": "18-nt folate receptor-α mRNA cis-element", "experiment": "Gel-shift assay of hnRNP-E1 proteins with 18-nt folate receptor-α mRNA cis-element", "type": "binding, human", "conditions": "absence of homocysteine or other reducing agent", "description": "as §3, §4"}, "[5]": {"test_system": "HPV16 L2 mRNA cis-element", "experiment": "Gel-shift assay of hnRNP-E1 proteins with HPV16 L2 mRNA", "type": "binding, Human Papillomavirus type 16", "conditions": "absence of reducing agents; versus wild-type and G292A", "description": "as §3\n(§5) Construction of plasmids for generation of HPV16 L2 RNA, gel-shift and in vitro translation studies were carried as described with additional treatments shown in FIGS. 10A-10D"}, "[6]": {"test_system": "hnRNP-E1 mRNA", "experiment": "In vitro translation of hnRNP-E1", "type": "biochemical, human", "conditions": "protein added after neutralizing ß-ME by N-ethylmaleimide", "description": "(§6) In vitro transcription-translation was carried out using the Linked SP6/T7 In Vitro Transcription/Translation Kit (Roche Applied Science) after addition of one of various targeted DNAs—pSPT18-25-hnRNP-E1 DNA, or Pst1-linearized plasmid pSPT18-folate receptor-α, or HPV16 L2 DNA, (0.5 μg/reaction)—to the transcription mix as described. In other experiments, the capacity for perturbing the interaction of hnRNP-E1 with the 25-nt hnRNP-E1 cis-element during in vitro translation was assessed in the presence of either scrambled oligonucleotides (5′-[…]-3′ SEQ ID NO:20) or specific antisense oligonucleotides (5′-[…]-3′ SEQ ID NO:21) generated against the 25-nt hnRNP-E1 mRNA cis-element (GenScript USA, Piscataway, N.J.)."}, "[7]": {"test_system": "folate receptor-α mRNA", "experiment": "In vitro translation of folate receptor-α", "type": "biochemical, human", "conditions": "presence of 2-mM NEM", "description": "In vitro transcription-translation was carried out using the Linked SP6/T7 In Vitro Transcription/Translation Kit (Roche Applied Science) after addition of one of various targeted DNAs—pSPT18-25-hnRNP-E1 DNA, or Pst1-linearized plasmid pSPT18-folate receptor-α, or HPV16 L2 DNA, (0.5 μg/reaction)—to the transcription mix as described. In other experiments, the capacity for perturbing the interaction of hnRNP-E1 with the 25-nt hnRNP-E1 cis-element during in vitro translation was assessed in the presence of either scrambled oligonucleotides (5′-GCGTCGCTCGCTTCGCACGTGCGCC-3′ SEQ ID NO:20) or specific antisense oligonucleotides (5′-GGG AGC GAG CGG GCG GGA G-3′ SEQ ID NO:21) generated against the 25-nt hnRNP-E1 mRNA cis-element (GenScript USA, Piscataway, N.J.)."}, "[8]": {"test_system": "HPV16 L2 RNA", "experiment": "In vitro translation of HPV16 L2 protein", "type": "biochemical, Human Papillomavirus type 16", "conditions": "after quenching excess ß-ME by NEM (2 mM)", "description": "as §6, §5"}, "[9]": {"test_system": "18-nt folate receptor-α mRNA cis-element-linked CAT reporter", "experiment": "CAT reporter driven by 18-nt folate receptor-α mRNA cis-element, co-transfected with hnRNP-E1 plasmids in HeLa-IU1-HF cells", "type": "cell-based, human", "conditions": "pSV-β-gal normalization", "description": "A plasmid containing CAT reporter DNA driven by an 18-nucleotide folate receptor-α mRNA cis-element, was constructed as previously described. Briefly, HeLa-IU1-HF cells were grown to 70-80% confluence and then co-transfected with CAT reporter DNA driven by an 18-nucleotide folate receptor-α mRNA cis-element and various construct combinations of either wild-type and mutant hnRNP-E1 plasmids using X-tremeGENE DNA transfection reagent (Roche Applied Science). The transfection reactions were set up with 6-μg DNA and 12-μL XtremeGENE DNA transfection reagent for each well. In these transfection experiments, pSV-ß-gal was used as an internal control to monitor the efficiency of transfection of cells. After 48 h cells were harvested for protein determination using the BCA protein assay (Pierce); ß-galactosidase activity by the ß-galactosidase chemiluminescent assay (Roche Diagnostics); and CAT activity using a CAT ELISA kit (Roche Diagnostics). All experiments were carried out 4 times with 3 replications per treatment. The data from non-transfected cells was used as a background and subtracted from that obtained with transfected cells. All data were normalized using the internal standard and protein concentration for each treatment."}, "[10]": {"test_system": "newly synthesized [^35S]hnRNP-E1 in placental 1584-HF cells", "experiment": "Biosynthetic rate of hnRNP-E1 after protein transfection into placental 1584-HF cells", "type": "cell-based, human", "conditions": "protein transfected in placental 1584-HF cells", "text": "(§7) Transfection of purified recombinant wild-type or various mutant hnRNP-E1 proteins into cells was achieved using the Xfect™ Protein Transfection Kit (Clontech, Mountain View, Calif.). Briefly, placental 1584-HF cells in 10-cm dishes at 70-80% confluence were transfected with 2.4-mL serum-free medium and Xfect Protein Transfection Reagent (1.2-mL) containing 20-μg of either wild-type hnRNP-E1-, or highest-affinity (HA)-hnRNP-E1(C293S)-mutant, or wild-type-like hnRNP-E1 (G292A)-mutant proteins and 2-μg of ß-galactosidase at 37° C. for 60-min. After cysteine-starvation for 4-h, an aliquot of cells were assessed for ß-galactosidase activity (to measure the efficiency of co-transfection of ß-galactosidase) and the remaining cells were pulsed with L-[^35S]cysteine (250-μCi) and assessed for specific [^35S]cysteine incorporated into folate receptor to determine the biosynthetic rate of this protein. A similar protocol was employed for analysis of newly synthesized [^35S]hnRNP-E1 using anti-hnRNP-E1 antiserum-coupled agarose and control agarose in order to derive values for specific [^35S]cysteine incorporated into hnRNP-E1 and thereby determine the biosynthetic rate of this protein."}, "[11]": {"test_system": "newly synthesized [^35S]folate receptors in placental 1584-HF cells", "experiment": "Biosynthetic rate of folate receptors after protein transfection into placental 1584-HF cells", "type": "cell-based, human", "conditions": "protein transfected in placental 1584-HF cells", "text": "as §7"}, "[12]": {"conditions": "listed as (HA)-hnRNP-E1(C293S)-mutant"}}, "note": "“And” between values parts separate entries of the source, which are not always exact repeats. Equal entries are not always repeated."}
{"substance": "GST-hnRNP-E1(C293S): highest-affinity mutant, cysteine-293 to serine in the KH3 domain of hnRNP-E1 (SEQ ID NO:2)", "values": [{"measurement": "Kd", "setting": "[1]", "value": 0.39, "unit": "nM"}, {"measurement": "Kd", "setting": "[2]", "value": "0.27 nM and 0.2 nM"}, {"measurement": "RNA-protein gel-shift signal", "setting": "[3]", "value": "strong signal"}, {"measurement": "RNA-protein signal", "setting": "[4]", "value": "strongest RNA-protein signal"}, {"measurement": "interaction with HPV16 L2 mRNA on gel-shift assays", "setting": "[5]", "value": "greater interaction"}, {"measurement": "translation of hnRNP-E1 in vitro", "setting": "[6]", "value": "markedly stimulated translation of hnRNP-E1 in vitro"}, {"measurement": "translation of folate receptor-α", "setting": "[7]", "value": "maximally increased"}, {"measurement": "HPV16 L2 protein signal", "setting": "[8]", "value": "progressive reduction in signal"}, {"measurement": "folate receptor-α cis-element-linked CAT activity versus wild-type hnRNP-E1 or G292A control", "setting": "[9]", "value": "two and one-half times stronger"}, {"measurement": "[^35S]cysteine-hnRNP-E1", "setting": "[10]", "value": "6.70 ± 1.74", "unit": "c fmol/mg protein/h"}, {"measurement": "increase in the rate of biosynthesis of [^35S]hnRNP-E1", "setting": "[10]", "value": "over 6 fold"}, {"measurement": "[^35S]cysteine-hnRNP-E1", "setting": "[10]; [12]", "value": 6.70, "unit": "fmol/mg protein/h"}, {"measurement": "[^35S]cysteine-folate receptor", "setting": "[11]", "value": "6.62 ± 0.74", "unit": "c fmol/mg protein/h"}, {"measurement": "[^35S]cysteine-folate receptor", "setting": "[11]; [12]", "value": 6.62, "unit": "fmol/mg protein/h"}, {"measurement": "increase of [^35S]folate receptors over controls", "setting": "[11]; over wild-type and G292A controls", "value": "~4", "unit": "fold"}]}
